These results are taken from patent publication US20240262812A1, “N-SUBSTITUTED PHENYLSULFONAMIDE COMPOUND AND USE THEREOF” (Shanghai Leado Pharmatech Co., Ltd., priority 2021, published 2024).

The target in experiment [1] is T1, mTRPA1 (Mus musculus, UniProt Q8BLA8).
T1 construct: expressed in transfected cells
Put plainly: IonWorks Barracuda (IWB) automated patch clamp, TRPA1 inhibitory activity. Type of experiment: cell-based. Conditions: HEK293 cells stably expressing mTRPA1, current induced by AITC, amplitude at +100 mV; read-out: IC50 (inhibition activity on TRPA1). The essentials: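 HEK293 cells stably expressing mouse TRPA1, perforated-patch whole-cell recording (amphotericin B) on IonWorks Barracuda; holding 0 mV, −100 to +100 mV ramp over 300 ms every 10 s. Current evoked by 300 µM AITC, leak-subtracted, amplitude taken at +100 mV; IC50 from fitted dose-effect curves, HC030031 as plate reference.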
For orientation: Patch clamp records ionic current or voltage across a cell membrane.

Experiment [2] has as its target T2, chemokine receptor CCR9 (Homo sapiens, UniProt P51686).
T2 construct: expressed in transfected cells
T2 sequence (P51686 1-369): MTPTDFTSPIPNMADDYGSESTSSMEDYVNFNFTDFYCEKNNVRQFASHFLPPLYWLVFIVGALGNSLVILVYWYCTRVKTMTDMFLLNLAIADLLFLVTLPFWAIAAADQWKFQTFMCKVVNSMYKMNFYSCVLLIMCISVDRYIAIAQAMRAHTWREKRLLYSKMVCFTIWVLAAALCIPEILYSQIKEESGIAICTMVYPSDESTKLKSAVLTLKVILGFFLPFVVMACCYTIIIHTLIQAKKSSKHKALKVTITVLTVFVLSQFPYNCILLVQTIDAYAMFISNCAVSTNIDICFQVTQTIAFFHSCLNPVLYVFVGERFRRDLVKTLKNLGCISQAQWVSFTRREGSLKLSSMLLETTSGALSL
Put plainly: CCR9 antagonistic activity, calcium flow (Fluo-4, FlexStation), CCL25 agonist. Type of experiment: cell-based. As to conditions: antagonistic mode, CCL25 150 nM; for inhibition at 100 µM: read-out: Inhibition rate (%) (100 μM). The text has this:
2.1 Main reagents: DMEM culture medium (GIBCO); dimethyl sulfoxide (Sigma); FLUO-4, AM (Invitrogen) 2.2 Main instrument: Flexstation-3 (Molecular Devices) The test concentration gradient of the compound and replicates were set according to the requirement of testing ICSO. All test substances with 8 concentrations were set, with 3 replicates for each concentration. By establishing a cell line that cotransformed the receptor and G16, the receptor being activated can induce the activation of Gα16 protein, thereby activating phospholipase C (PLC) to produce IP3 and DAG. IP3 can bind to the IP3 receptor on the intracellular endoplasmic reticulum and mitochondria, leading to the release of intracellular calcium. Therefore, measuring changes in intracellular calcium can serve as a method for detecting the activation status of target receptor. Fluo-4/AM is a calcium fluorescent probe indicator used to measure calcium ion, as a non-polar lipophilic compound, under the action of cell lipase after entering cells, the AM group dissociates and releases Fluo-4; since Fluo-4 is a polar molecule, it is not easy to pass through lipid bilayers, allowing it to remain in the cell for a long time. Ultimately, the level of G protein activation can be reflected by measuring the excited fluorescence intensity. […] Cells stably expressing the target receptor/Ga16 were planted on a 96 well plate and cultured overnight. 2. The culture solution was removed from the well planted cells, then 40 μL/well of freshly prepared dye was added. The mixture was incubated at a constant temperature in a 37° C. incubator for 40 minutes. 3. The drug to be tested was diluted with calcium buffer and mixed well. 4. The dye was absorbed and discarded. After washed once with freshly prepared calcium buffer, 50 μL of calcium buffer that dissolved the drug to be tested was added for replacement. 5. The FlexStation II instrument was used for detection. Starting from the 15th second, […] dissolved with known agonist was automatically added by the instrument, and finally the fluorescence value at 525 nm was readed. The following formula was used to calculate the cell response rate (% Response) for each sample under each concentration. […] IC50 value was calculated using GraphPad Prism.

A word on the IC50: it is the concentration needed to halve the response being measured. The term inhibition denotes the drop in the measured response relative to a control, in per cent.

Structures are written as SMILES. Where only a bound is given, the exact number is not on record here.

T1 sequence (Q8BLA8 whole entry): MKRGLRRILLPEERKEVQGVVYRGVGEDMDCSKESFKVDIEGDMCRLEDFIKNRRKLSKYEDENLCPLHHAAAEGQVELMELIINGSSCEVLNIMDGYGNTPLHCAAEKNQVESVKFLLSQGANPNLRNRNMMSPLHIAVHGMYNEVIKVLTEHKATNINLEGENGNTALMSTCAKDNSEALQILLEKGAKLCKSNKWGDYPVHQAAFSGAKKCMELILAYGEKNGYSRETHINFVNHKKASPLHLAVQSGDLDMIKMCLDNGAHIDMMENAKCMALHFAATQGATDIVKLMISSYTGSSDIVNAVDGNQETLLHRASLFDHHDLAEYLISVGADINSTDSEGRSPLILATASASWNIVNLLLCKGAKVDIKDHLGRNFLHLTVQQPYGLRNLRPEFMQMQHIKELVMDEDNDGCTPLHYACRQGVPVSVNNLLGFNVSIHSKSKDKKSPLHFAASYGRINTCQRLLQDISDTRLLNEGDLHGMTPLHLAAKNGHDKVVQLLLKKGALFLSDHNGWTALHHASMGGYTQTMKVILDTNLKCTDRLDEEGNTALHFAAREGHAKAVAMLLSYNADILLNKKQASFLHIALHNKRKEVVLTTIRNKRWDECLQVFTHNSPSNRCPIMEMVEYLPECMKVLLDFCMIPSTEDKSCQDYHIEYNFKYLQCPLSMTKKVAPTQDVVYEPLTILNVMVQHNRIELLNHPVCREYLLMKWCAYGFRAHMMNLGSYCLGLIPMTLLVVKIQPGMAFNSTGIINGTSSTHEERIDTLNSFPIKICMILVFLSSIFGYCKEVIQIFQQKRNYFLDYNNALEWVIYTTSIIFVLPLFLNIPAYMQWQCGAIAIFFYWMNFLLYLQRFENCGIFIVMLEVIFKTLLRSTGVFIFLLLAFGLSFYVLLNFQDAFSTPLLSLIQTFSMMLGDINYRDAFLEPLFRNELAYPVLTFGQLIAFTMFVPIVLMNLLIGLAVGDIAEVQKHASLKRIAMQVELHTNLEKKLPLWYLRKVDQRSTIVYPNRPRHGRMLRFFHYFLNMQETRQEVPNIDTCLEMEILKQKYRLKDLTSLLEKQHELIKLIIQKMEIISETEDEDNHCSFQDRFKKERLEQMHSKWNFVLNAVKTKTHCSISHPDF

In the case of `CNCc1ccc(NS(=O)(=O)c2ccsc2)c(-c2ccco2)c1` [IA-30], the IC50 in experiment [1] is < 1 µM. In experiment [2], the inhibition at 100 µM was 3% and the IC50 was > 100 µM.
On to `CNCc1ccc(-c2nccs2)c(NS(=O)(=O)c2ccccc2)c1` [IA-51, N-(5-((methylamino)methyl)-2-(thiazol-2-yl)phenyl)benzenesulfonamide], for which the IC50 in experiment [1] was < 1 µM; in experiment [2], > 100 µM. In addition, the inhibition at 100 µM in experiment [2] worked out at 3%.
On to `CNCc1ccc(-c2cc[nH]n2)c(NS(=O)(=O)c2ccccc2)c1` [IA-55, N-(5-((methylamino)methyl)-2-(1H-pyrazol-3-yl)phenyl)benzenesulfonamide], for which the concentration for half-maximal inhibition (IC50) in experiment [1] was < 1 µM. In addition, in experiment [2], the inhibition at 100 µM worked out at 8% and the concentration for half-maximal inhibition (IC50) was > 100 µM.
`NCc1ccc(NS(=O)(=O)c2ccsc2)c(-c2ccco2)c1` [ID-5]: the IC50 in experiment [1] was < 1 µM. In addition, in experiment [2], the inhibition at 100 µM is 8% and the IC50 was > 100 µM.
